System: 156681-154-R-J1-PDC complex spheroid viability
Test: Anticancer human tumor 156681-154-R-J1-PDC patient-derived melanoma cell line growth inhibition [CLK]
Conditions: for IC50: curve of first compound; for viability, T/C: stronger effect = lower value; active means viability on the fitted dose curve at most 10% of control; inactive means the rest
Outline: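 Patient-derived tumor cells grown as complex spheroids with HUVEC endothelial cells and mesenchymal stem cells, treated with drug combinations. Concentrations descend in half-log steps from near clinical Cmax, or from 10 microM if Cmax unknown.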

[1] = second compound 0.0316 µM, first compound 0.0316 µM
[2] = second compound 0.0316 µM, first compound 0.1 µM
[3] = second compound 0.0316 µM, first compound 0.316 µM
[4] = second compound 0.0316 µM, first compound 1 µM
[5] = second compound 0.1 µM, first compound 0.0316 µM
[6] = second compound 0.1 µM, first compound 0.1 µM
[7] = second compound 0.1 µM, first compound 0.316 µM
[8] = second compound 0.1 µM, first compound 1 µM
[9] = second compound 0.316 µM, first compound 0.0316 µM
[10] = second compound 0.316 µM, first compound 0.1 µM
[11] = second compound 0.316 µM, first compound 0.316 µM
[12] = second compound 0.316 µM, first compound 1 µM
[13] = second compound 1 µM, first compound 0.0316 µM
[14] = second compound 1 µM, first compound 0.1 µM
[15] = second compound 1 µM, first compound 0.316 µM
[16] = second compound 1 µM, first compound 1 µM
[17] = second compound 3.16 µM, first compound 0.0316 µM
[18] = second compound 3.16 µM, first compound 0.1 µM
[19] = second compound 3.16 µM, first compound 0.316 µM
[20] = second compound 3.16 µM, first compound 1 µM
[21] = second compound 10 µM, first compound 0.0316 µM
[22] = second compound 10 µM, first compound 0.1 µM
[23] = second compound 10 µM, first compound 0.316 µM
[24] = second compound 10 µM, first compound 1 µM
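Further: spheroids exposed to the agents for seven days.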
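Wherever viability, T/C is given: 100% = DMSO vehicle control viability.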

CC(=O)O[C@H]1C(=O)[C@@]2(C)[C@H]([C@H](OC(=O)c3ccccc3)[C@]3(O)C[C@H](OC(=O)[C@H](O)[C@@H](NC(=O)c4ccccc4)c4ccccc4)C(C)=C1C3(C)C)[C@]1(OC(C)=O)CO[C@@H]1C[C@@H]2O + CNC(=O)c1ccc(Nc2nc(OC3CCCC3)c3c(-c4ccc5nc(C)oc5c4)c[nH]c3n2)c(OC)c1
inactive: viability, T/C [1] 16.8% | viability, T/C [2] 19% | viability, T/C [3] 13.9% | viability, T/C [4] 19.6% | viability, T/C (second compound 0.0316 µM, first compound 3.16 µM) 30.7% | viability, T/C (second compound 0.0316 µM, first compound 10 µM) 41.1% | viability, T/C [5] 36.3% | viability, T/C [6] 24.6% | viability, T/C [7] 38.9% | viability, T/C [8] 44.2% | viability, T/C (second compound 0.1 µM, first compound 3.16 µM) 61.3% | viability, T/C (second compound 0.1 µM, first compound 10 µM) 56.1% | viability, T/C [9] 78.4% | viability, T/C [10] 88.8% | viability, T/C [11] 55.4% | viability, T/C [12] 91.9% | viability, T/C (second compound 0.316 µM, first compound 3.16 µM) 102% | viability, T/C (second compound 0.316 µM, first compound 10 µM) 95.3% | viability, T/C [13] 58.5% | viability, T/C [14] 66.6% | viability, T/C [15] 65.5% | viability, T/C [16] 71.7% | viability, T/C (second compound 1 µM, first compound 3.16 µM) 85% | viability, T/C (second compound 1 µM, first compound 10 µM) 76.4% | viability, T/C [17] 63.2% | viability, T/C [18] 60.1% | viability, T/C [19] 56% | viability, T/C [20] 71.4% | viability, T/C (second compound 3.16 µM, first compound 3.16 µM) 78.6% | viability, T/C (second compound 3.16 µM, first compound 10 µM) 58.4% | viability, T/C [21] 51.6% | viability, T/C [22] 51.3% | viability, T/C [23] 55.2% | viability, T/C [24] 47.1% | viability, T/C (second compound 10 µM, first compound 3.16 µM) 57.5% | viability, T/C (second compound 10 µM, first compound 10 µM) 55.2%
< 31.6 nM: IC50 (second compound 0.0316 µM) | IC50 (second compound 0.1 µM)
> 10000 nM: IC50 (second compound 0.316 µM) | IC50 (second compound 1 µM) | IC50 (second compound 3.16 µM) | IC50 (second compound 10 µM)

CCc1c2c(nc3ccc(O)cc13)-c1cc3c(c(=O)n1C2)COC(=O)[C@]3(O)CC + CNC(=O)c1ccc(Nc2nc(OC3CCCC3)c3c(-c4ccc5nc(C)oc5c4)c[nH]c3n2)c(OC)c1
< 3.16 nM: IC50 (second compound 0.0316 µM) | IC50 (second compound 0.1 µM) | IC50 (second compound 0.316 µM) | IC50 (second compound 1 µM) | IC50 (second compound 3.16 µM) | IC50 (second compound 10 µM)
inactive: viability, T/C (second compound 0.0316 µM, first compound 0.00316 µM) 27.7% | viability, T/C (second compound 0.0316 µM, first compound 0.01 µM) 15% | viability, T/C [1] 18% | viability, T/C [2] 19.4% | viability, T/C [3] 16.6% | viability, T/C (second compound 0.1 µM, first compound 0.00316 µM) 24.1% | viability, T/C (second compound 0.1 µM, first compound 0.01 µM) 16.7% | viability, T/C [5] 14% | viability, T/C [6] 17.7% | viability, T/C [7] 14.9% | viability, T/C (second compound 0.316 µM, first compound 0.00316 µM) 27.4% | viability, T/C (second compound 0.316 µM, first compound 0.01 µM) 14.2% | viability, T/C [9] 12.8% | viability, T/C [10] 16.4% | viability, T/C [11] 14.8% | viability, T/C [12] 5.29% | viability, T/C (second compound 1 µM, first compound 0.00316 µM) 21.9% | viability, T/C (second compound 1 µM, first compound 0.01 µM) 11.3% | viability, T/C [13] 10.5% | viability, T/C (second compound 3.16 µM, first compound 0.00316 µM) 20.9% | viability, T/C (second compound 3.16 µM, first compound 0.01 µM) 15.8% | viability, T/C [17] 10.4% | viability, T/C [18] 14.2% | viability, T/C (second compound 10 µM, first compound 0.00316 µM) 18.9% | viability, T/C (second compound 10 µM, first compound 0.01 µM) 12% | viability, T/C [21] 11.1%
active: viability, T/C [4] 4.47% | viability, T/C [8] 5.02% | viability, T/C [14] 14.7% | viability, T/C [15] 9.49% | viability, T/C [16] 5.41% | viability, T/C [19] 13.1% | viability, T/C [20] 2.05% | viability, T/C [22] 12.5% | viability, T/C [23] 9.62% | viability, T/C [24] 1.61%

Reference: PubChem BioAssay AID2060627 (Molecular Pharmacology Branch, DTP, NCI, 2025)
